Patent US6514957B1, “Method of alleviating the violence and stimulating the appetite of stag in the puberty age of the fall and method of promoting the growth of stag's horn” (priority 2001, dated 2003)
Several values for one entry are separate records, joined by “and”; a condition that tells them apart may be missing. Equal entries are not always repeated. Entries after “also recorded” stand apart in the source; their conditions may differ.

Experiments:
[1] = system: stags of elk of which the first horn was cut in the summer; assay: Promoting the growth of the second stag's horn after cutting the first horn; assay type: in vivo; details: for Growth and development progress of the second stag's horn: 500 mg (1 mg/kg) injected Oct. 2, 1999 or Oct. 2, 2000
Experimental: To 4 stags of elk, of which the first horn coming up in the spring and growing cut in the summer, each in the weight of 500 kg, 17β-decanoate-4-estrene-3-one 500 mg (effective dose corresponding to 1 mg per 1 kg of the weight of stag: “ANABOLIN FORTE” is the trademark manufactured by Alfasan in Nederland and containing 17β-decanoate-4-estrene-3-one 50 mg in a injection product 1 ml; “ANABOLIN FORTE 10 ml” is the trademark imported by BUM-HAN PHARM. in Korea) was injected-injected.
To 8 stags of elk, each in the weight of 500 kg, of which the first horn coming up in the spring and grown up cuts in the summer, 17β-decanoate-4-estrene-3-one 50 mg, 100 mg, 250 mg, 500 mg, 750 mg, 1,000 mg, 2,500 mg and 5,000 mg (effective doses corresponding to 0.1 mg, 0.2 mg, 0.5 mg, 1.0 mg, 1.5 mg, 2.0 mg, 5.0 mg and 10 mg per 1 kg of the weight of stag: “ANABOLIN FORTE” is the trademark manufactured by Alfasan in Nederland and containing 17β-decanoate-4-estrene-3-one 50 mg in a injection product 1 ml; “ANABOLIN FORTE 1 ml, 2 ml, 5 ml, 10 ml, 15 ml, 20 ml, 50 ml and 100 ml” is the trademark imported by BUM-HAN PHARM. in Korea) were injected-injected.
Example 8 was the same as Example 3, except that Example 8 substituted 17β-cyclohexylpropionate-4-estrene-3-one for 17β-decanoate-4-estrene-3-one.
Example 9 was the same as Example 5, except that Example 9 substituted 17β-cyclohexylpropionate-4-estrene-3-one for 17β-decanoate-4-estrene-3-one.
Example 11 was the same as Example 3, except that Example 9 substituted a compound of 17β-decanoate-4-estrene-3-one and 17β-cyclohexylpropionate-4-estrene-3-one for 17β-decanoate-4-estrene-3-one.

[2] = system: stags of elk, violent and anorexia in the puberty age of the fall; assay: Alleviating the violence and stimulating the appetite of stags in the puberty age of the fall; assay type: in vivo
Experimental: To 4 stags of elk, each in the weight of 500 kg, which is violent and anorexia in the puberty age of the fall, 17β-decanoate-4-estrene-3-one 500 mg (effective dose corresponding to 1 mg per 1 kg of the weight of stag: “ANABOLIN FORTE” is the trademark manufactured by Alfasan in Nederland and containing 17β-decanoate-4-estrene-3-one 50 mg in a injection product 1 ml; “ANABOLIN FORTE 10 ml” is the trademark imported by BUM-HAN PHARM. in Korea) was intramuscularly-injected.
To 8 stags of elk, each in the weight of 500 kg, which is violent and anorexia in the puberty age of the fall, 17β-decanoate-4-estrene-3-one 50 mg, 100 mg, 250 mg, 500 mg, 750 mg, 1,000 mg, 2,500 mg and 5,000 mg (effective doses corresponding to 0.1 mg, 0.2 mg, 0.5 mg, 1.0 mg, 1.5 mg, 2.0 mg, 5.0 mg and 10 mg per 1 kg of the weight of stag: “ANABOLIN FORTE” is the trademark manufactured by Alfasan in Nederland and containing 17β-decanoate-4-estrene-3-one 50 mg in a injection product 1 ml; “ANABOLIN FORTE 1 ml, 2 ml, 5 ml, 10 ml, 15 ml, 20 ml, 50 ml and 100 ml” is the trademark imported by BUM-HAN PHARM. in Korea) were injected-injected.
Example 6 was the same as Example 1, except that Example 6 substituted 17β-cyclohexylpropionate-4-estrene-3-one for 17β-decanoate-4-estrene-3-one.
Example 7 was the same as Example 2, except that Example 7 substituted 17β-cyclohexylpropionate-4-estrene-3-one for 17β-decanoate-4-estrene-3-one.
Example 10 was the same as Example 2, except that Example 9 substituted a compound of 17β-decanoate-4-estrene-3-one and 17β-cyclohexylpropionate-4-estrene-3-one for 17β-decanoate-4-estrene-3-one.

[3] = Elk 5, 500 kg, dose 50 mg (0.1 mg/kg) injected
[4] = Elk 6, 500 kg, dose 100 mg (0.2 mg/kg) injected
[5] = Elk 7, 500 kg, dose 250 mg (0.5 mg/kg) injected
[6] = Elk 8, 500 kg, dose 500 mg (1.0 mg/kg) injected
[7] = Elk 9, 500 kg, dose 750 mg (1.5 mg/kg) injected
[8] = Elk 10, 500 kg, dose 1,000 mg (2.0 mg/kg) injected
[9] = Elk 11, 500 kg, dose 2,500 mg (5.0 mg/kg) injected
[10] = Elk 12, 500 kg, dose 5,000 mg (10 mg/kg) injected
[11] = elk stags 500 kg, doses 0.1, 0.2, 0.5, 1.0, 1.5, 2.0, 5.0 and 10 mg per kg

C[C@]12CC[C@H]3[C@@H](CCC4=CC(=O)CC[C@@H]43)[C@@H]1CC[C@@H]2OC(=O)CCC1CCCCC1 [17β-cyclohexylpropionate-4-estrene-3-one]
test results (growth and production amount of the second stag's horn) compared with 17β-decanoate-4-estrene-3-one ([1]; conducted as Example 3: 500 mg (1 mg/kg), elk stags 500 kg): the same as those of Example 3 | test results (production amount of the second stag's horn by dose) compared with 17β-decanoate-4-estrene-3-one ([1]; conducted as Example 5: 50 to 5,000 mg (0.1 to 10 mg/kg), elk stags 500 kg): the same as those of Example 5 | test results (violence, appetite) compared with 17β-decanoate-4-estrene-3-one ([2]; conducted as Example 1: 500 mg (1 mg/kg) intramuscular, elk stags 500 kg): the same as those of Example 1 | test results (violence, appetite) compared with 17β-decanoate-4-estrene-3-one ([2]; conducted as Example 2: 50 to 5,000 mg (0.1 to 10 mg/kg), elk stags 500 kg): the same as those of Example 2

CCCCCCCCCC(=O)O[C@H]1CC[C@H]2[C@@H]3CCC4=CC(=O)CC[C@@H]4[C@H]3CC[C@]12C [17β-decanoate-4-estrene-3-one]
Growth and development progress of the second stag's horn ([1]; 0 days after administration, individual Elk 21, 22 (500 kg)): 0 cm | production amount of the second stag's horn relative to that of the first stag's horn ([1]; 1 mg/kg injected, elk 500 kg): about 80% | time from administration until the second stag's horn comes up ([1]; 1 mg/kg intramuscularly injected, elk 500 kg): 30 days | growth rate of the second stag's horn ([1]; 1 mg/kg intramuscularly injected, elk 500 kg, after the horn came up): 3 cm per a day | Production amount of stag's horn: the second horn collected in the next spring ([1]; 500 mg (1 mg/kg) injected 1999.10.2 or 2000.10.2, individual Elk 21, 22 (500 kg)): 12 kg (2×) and 9.6 kg (2×) | Growth and development progress of the second stag's horn ([1]; 10 days after administration, individual Elk 21, 22 (500 kg)): 0 cm | Growth and development progress of the second stag's horn ([1]; 20 days after administration, individual Elk 21, 22 (500 kg)): 0 cm | Growth and development progress of the second stag's horn ([1]; 30 days after administration, individual Elk 21, 22 (500 kg)): 0.5 cm | Growth and development progress of the second stag's horn ([1]; 40 days after administration, individual Elk 21, 22 (500 kg)): approximately 30 cm and 30 cm | Growth and development progress of the second stag's horn ([1]; 50 days after administration, individual Elk 21, 22 (500 kg)): 40 cm | Growth and development progress of the second stag's horn ([1]; 60 days after administration, individual Elk 21, 22 (500 kg)): 60 cm | Growth and development progress of the second stag's horn ([1]; 70 days after administration, individual Elk 21, 22 (500 kg)): 80 cm | Growth and development progress of the second stag's horn ([1]; 80 days after administration, individual Elk 21, 22 (500 kg)): 90 cm and 100 cm (3×) | Growth and development progress of the second stag's horn ([1]; 90 days after administration, individual Elk 21, 22 (500 kg)): 100 cm and 110 cm (2×) and 120 cm | Growth and development progress of the second stag's horn ([1]; 100 days after administration, individual Elk 21, 22 (500 kg)): 100 cm and 110 cm (2×) and 120 cm | Production amount of stag's horn: the second horn collected in the next spring ([1]; Elk 31, 500 kg, dose 50 mg (0.1 mg/kg), first horn 15 kg): 5 kg | Production amount of stag's horn: the second horn collected in the next spring ([1]; Elk 32, 500 kg, dose 100 mg (0.2 mg/kg), first horn 15 kg): 5 kg | Production amount of stag's horn: the second horn collected in the next spring ([1]; Elk 33, 500 kg, dose 250 mg (0.5 mg/kg), first horn 15 kg): 12 kg | Production amount of stag's horn: the second horn collected in the next spring ([1]; Elk 34, 500 kg, dose 500 mg (1.0 mg/kg), first horn 15 kg): 12 kg | Production amount of stag's horn: the second horn collected in the next spring ([1]; Elk 35, 500 kg, dose 750 mg (1.5 mg/kg), first horn 15 kg): 12 kg | Production amount of stag's horn: the second horn collected in the next spring ([1]; Elk 36, 500 kg, dose 1,000 mg (2.0 mg/kg), first horn 15 kg): 12 kg | Production amount of stag's horn: the second horn collected in the next spring ([1]; Elk 37, 500 kg, dose 2,500 mg (5.0 mg/kg), first horn 15 kg): 5 kg | Production amount of stag's horn: the second horn collected in the next spring ([1]; Elk 38, 500 kg, dose 5,000 mg (10 mg/kg), first horn 15 kg): 5 kg | growth of stag's horn ([1]; elk 500 kg, doses 0.1, 0.2, 0.5, 1.0, 1.5, 2.0, 5.0 and 10 mg per kg): promoted | Status After: appetite [2, 3]: Stimulating appetite | Status After: violence [2, 3]: Alleviating violence | Status After: appetite [2, 4]: Stimulating appetite | Status After: violence [2, 4]: Alleviating violence | Status After: appetite [2, 5]: Stimulating appetite | Status After: violence [2, 5]: Alleviating violence | Status After: appetite [2, 6]: Stimulating appetite | Status After: violence [2, 6]: Alleviating violence | Status After: appetite [2, 7]: Stimulating appetite | Status After: violence [2, 7]: Alleviating violence | Status After: appetite [2, 8]: Stimulating appetite | Status After: violence [2, 8]: Alleviating violence | Status After: appetite [2, 9]: Stimulating appetite | Status After: violence [2, 9]: Alleviating violence | Status After: appetite [2, 10]: Stimulating appetite | Status After: violence [2, 10]: Alleviating violence | Status After: appetite ([2]; elk stags 500 kg, anorexia before, 500 mg (1 mg/kg) intramuscularly injected 2000.10.2, individual Elk 1-4): stimulated in appetite; also recorded: Stimulating appetite | Status After: violence ([2]; elk stags 500 kg, violent before, 500 mg (1 mg/kg) intramuscularly injected 2000.10.2, individual Elk 1-4): less violent; also recorded: Alleviating violence | intake of feed ([2]; elk stags 500 kg, 1.0 mg/kg intramuscularly injected): increasing the intake of feed | appetite after injection [2, 11]: stimulated in appetite | intake of feed [2, 11]: increasing the intake of feed | violence after injection [2, 11]: less violent
